From patent US6541463B1, “Inhibitors of type 5 and type 3 17β-hydroxysteroid dehydrogenase and methods for their use” (Endorecherche, Inc., priority 1998, dated 2003)
Like-named read-outs stand apart in the source and are kept apart here.

Key:
androgen receptor = molecular target: T1, androgen receptor (Rattus norvegicus, UniProt P15207); assay: Androgen receptor (AR) assay: inhibition of [3H]R1881 binding, prostate cytosol
T1 construct: from tissue; host or cells: ventral prostate cytosol of gonadectomized male Sprague-Dawley rats
T1 sequence (P15207 1-902): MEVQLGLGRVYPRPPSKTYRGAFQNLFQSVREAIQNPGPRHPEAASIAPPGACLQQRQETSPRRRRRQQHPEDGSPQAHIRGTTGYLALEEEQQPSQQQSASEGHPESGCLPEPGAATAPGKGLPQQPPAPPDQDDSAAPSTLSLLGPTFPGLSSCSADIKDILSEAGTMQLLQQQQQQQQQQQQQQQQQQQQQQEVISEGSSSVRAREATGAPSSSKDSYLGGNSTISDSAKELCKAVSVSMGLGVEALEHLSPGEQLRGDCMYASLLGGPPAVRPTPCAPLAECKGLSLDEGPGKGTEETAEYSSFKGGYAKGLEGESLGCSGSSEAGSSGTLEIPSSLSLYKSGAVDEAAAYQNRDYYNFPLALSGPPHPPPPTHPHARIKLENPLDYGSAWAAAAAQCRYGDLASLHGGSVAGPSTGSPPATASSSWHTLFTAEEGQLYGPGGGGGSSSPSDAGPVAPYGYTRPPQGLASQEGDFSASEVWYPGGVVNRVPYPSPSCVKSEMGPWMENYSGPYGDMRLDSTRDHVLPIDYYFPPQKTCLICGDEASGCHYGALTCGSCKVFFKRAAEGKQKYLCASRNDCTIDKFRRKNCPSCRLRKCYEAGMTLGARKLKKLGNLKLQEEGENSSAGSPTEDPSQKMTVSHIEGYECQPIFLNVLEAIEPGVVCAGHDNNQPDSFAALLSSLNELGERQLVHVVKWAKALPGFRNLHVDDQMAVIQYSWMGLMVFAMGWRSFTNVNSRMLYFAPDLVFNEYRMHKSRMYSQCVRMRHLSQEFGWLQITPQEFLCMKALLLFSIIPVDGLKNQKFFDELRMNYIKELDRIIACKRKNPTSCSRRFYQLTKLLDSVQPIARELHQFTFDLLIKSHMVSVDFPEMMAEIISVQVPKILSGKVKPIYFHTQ
Method: The manner in which the percentage of inhibition is determined is described in “Other Tests; D-Androgen Receptor (AR) Assays”. Lower numbers are desirable.
(§1) Male Sprague-Dawley rats (Crl: CD(SD)Br) weighing 200-300 g were obtained from Charles-River Inc. (St-Constant, Québec, Canada). The rats were gonadectomized under general anesthesia (Isoflurane) and killed by cervical dislocation 24 hours later. The ventral prostates were rapidly removed, dissected free from adhering tissue and frozen on dry-ice. Prostates were kept at −80° C. until assay.
All subsequent steps were performed at 0-4° C. Prostates were homogenized in 5 vol (wt/vol) of buffer A (25 mM Tris-HCl, 1.5 mM EDTA disodium salt, 10 mM α-monothioglycerol, 10% glycerol, and 10 mM sodium molybdate, pH 7.4), using a Polytron PT-10 homogenizer (Brinkman Instruments, Canada) at a setting of 5 for three periods of 10 sec, with intervals of 10 sec for cooling. The homogenate was then centrifuged at 105,000×g for 60 min in a Beckman L5-65 ultracentrifuge (Fullerton, Calif.).
Androgen binding was measured using the hydroxylapatite assay (HAP). In brief, the radioactive steroid [^3H]R1881 solubilized in ethanol was diluted into buffer A. Aliquots of prostate cytosol preparation (0.1 ml) were then incubated with 8 nM [^3H]R1881 (0.1 ml, ˜200,000 cpm) in the presence or absence of the indicated concentrations of unlabeled compounds (0.1 ml, prepared in buffer A containing 10% ethanol) for 16-18 h at 0-4° C. […] Unbound steroids were separated by incubation for 40 min at 0-4° C. with 0.3 ml HAP prepared in buffer P (50 mM, Tris-HCl, 10 mM KH2PO4, pH 7.4) as follows: 10 g HAP were washed with buffer P until the supernatant reached a pH of 7.4 and then following centrifugation and decantation of the supernatant, 37.5 ml of buffer P were added. After incubation with HAP and 10 minutes of centrifugation at 1,000×g, the pellet was washed 3 times with 1 ml buffer P. Thereafter, the radioactivity was extracted from the pellet by incubation at room temperature for 60 minutes with 1 ml EtOH. After centrifugation, the supernatant was decanted into a scintillation vial and the pellet was extracted again with ethanol.

progesterone receptor = assay: Progesterone receptor assay: inhibition of [3H]R5020 binding, uterine cytosol; parameters: species or system rat
Method: The manner in which the percentage of inhibition is determined is described in “Other Tests; E-Progesterone Receptor Assay”. Lower numbers are desirable.
[17α-methyl-^3H]-promegestone (R5020) (84 Ci/mmol) and the corresponding unlabeled compound were purchased from New England Nuclear (Lachine, Québec, Canada). All other chemicals were of analytical grade.
Stock solutions of the unlabeled steroids were kept at 4° C. in ethanol. The desired steroid solutions were then prepared by appropriate dilution in buffer B (10 mM Tris-HCl, 1.5 mM EDTA, 10 mM α-monothioglycerol, pH 7.4) containing 30% ethanol.
as §1, with “Female” for “Male”, “rats” for “rats (Crl: CD(SD)Br)”, “uteri are” for “ventral prostates were”, “Tissues” for “Prostates”, “use.” for “assay.”
All procedures were performed at 4° C. Tissues were pulverized frozen in dry ice with a Thermovac pulverizer. The samples were then homogenized in 10 vol (w/v) of buffer A (25 mM Tris-HCl, 1.5 mM EDTA, 10 mM α-monothioglycerol, 10% glycerol, 10 mM sodium molybdate, pH 7.4) using a Polytron PT-10 homogenizer (Brinkmann Instruments, Canada) at a setting of 5 for two periods of 10 sec, with intervals of 10 sec for cooling. The homogenate was then centrifuged at 105,000×g for 90 min. The supernatant was used immediately for assay.
Progesterone binding was measured using the dextran-coated charcoal adsorption technique. […] Each concentration was done in triplicate. Assay was ended with 300 μl of DCC (1% Norit A and 0.1% Dextran T-70 in Buffer B). After 10 min of incubation, tubes were centrifuged at 2,000×g for 10 min. and decanted in vials with 6 ml of BCS liquid scintillation (New England Nuclear, Dupont). The radioactivity was measured in a Beckman counter at a counting efficiency of 35%.

| SMILES | inhibition at 1 µM (androgen receptor; Table 4′, E^−6) [%] | inhibition at 0.01 µM (androgen receptor; Table 4′, E^−8) [%] | % Inhibition Progesterone Receptor E^−6 (progesterone receptor; Table 4′, E^−6) [%] | % Inhibition Progesterone Receptor E^−8 (progesterone receptor; Table 4′, E^−8) [%] | also measured |
| --- | --- | --- | --- | --- | --- |
| C[C@]12CCC3c4cc([N+](=O)[O-])c(O)cc4CCC3C1CC[C@@]21CCCC(=O)O1 (stereo partly drawn) [EM-1124, 2-Nitro-1,3,5(10)-estraetriene-3-ol-17(R)-spiro-2′-(6′-oxo)tetrahydropyran] | 7 | 1 | 20 | 1 | – |
| CC(=O)O[C@]1(C)C(=O)CCC2C3C=C(C)C4=CC(=O)C=C[C@]4(C)C3CC[C@@]21C (some centres unmarked) [CS-237] | – | – | – | – | inhibition at 1 µM (androgen receptor; read-out: % Inhibition Androgen Receptor E^−6): 11%; inhibition at 0.01 µM (androgen receptor; read-out: % Inhibition Androgen Receptor E^−8): 0%; % Inhibition Progesterone Receptor E^−6 (progesterone receptor; E^−6): 0%; % Inhibition Progesterone Receptor E^−8 (progesterone receptor; E^−8): 0% |
| CC1(C)CC[C@@]2(CCC3C4CCc5cc6oncc6cc5C4CC[C@@]32C)OC1=O (stereo partly drawn) [EM-1407-CS, 1,3,5(10)-estratrien-(2,3-oximino)-17(R)-spiro-2′-(5′,5′-dimethyl-6′-oxo)tetrahydropyran] | 0 | 0 | 3 | 0 | – |
| CC1(C)CCC2(CCC3C4CCc5c(cc(Cl)c(O)c5Cl)C4CCC32C)OC1=O (centres unmarked) [EM-1391-CS] | 0 | 0 | 1 | 1 | – |
| COc1cc2c(cc1C)C1CCC3(C)C(CCC34CCC(C)(C)C(=O)O4)C1CC2 (centres unmarked) [EM-1412-CS] | 0 | 0 | 0 | 0 | – |
| CCC[C@@H]1CC2C3C=CC4=CC(=O)CC[C@]4(C)C3CC[C@]2(C)C1=O (some centres unmarked) [EM-1097] | – | – | – | – | inhibition at 1 µM (androgen receptor; E^−6): 5%; inhibition at 0.01 µM (androgen receptor; E^−8): 0%; % Inhibition Progesterone Receptor E^−6 (progesterone receptor; E^−6): 0%; % Inhibition Progesterone Receptor E^−8 (progesterone receptor; E^−8): 2% |
| COCCOc1cc2c(cc1C(N)=O)C1CC[C@@]3(C)C(CC[C@@]34CCC(C)(C)C(=O)O4)C1CC2 (stereo partly drawn) [EM-1424, 2-Carbamoyl-3-(2″-methoxyethyloxy)-1,3,5(10)-estratrien 17(R)-spiro-2′-(5′,5′-dimethyl-6′-oxo)tetrahydropyran] | 2 | 2 | 0 | 1 | – |
| CN1C(=O)C=C[C@]2(C)C3CC[C@@]4(C)C(CC[C@@]45CCCC(=O)O5)C3CCC12 (some centres unmarked) [EM-1122-CS] | – | – | – | – | inhibition at 1 µM (androgen receptor; Table 5 column 13, E^−6): 8%; inhibition at 0.01 µM (androgen receptor; Table 5 column 13, E^−8): 1%; % Inhibition Progesterone Receptor E^−6 (progesterone receptor; Table 5 column 14, E^−6): 3%; % Inhibition Progesterone Receptor E^−8 (progesterone receptor; Table 5 column 14, E^−8): 0% |
| C[C@]12CCC3c4ccc(O)cc4CCC3C1CC[C@@]21CCCC(=O)O1 (stereo partly drawn) [EM-919, 1,3,5(10)-estratrien-3-ol-17(R)-spiro-2′(6′-oxo)tetrahydropyran] | – | – | – | – | % Inhibition Androgen Receptor *E^−5 (androgen receptor; Table 4′, starred values, E^−5): 6* %; % Inhibition Androgen Receptor *E^−7 (androgen receptor; Table 4′, starred values, E^−7): 0* %; % Inhibition Progesterone Receptor *E^−5 (progesterone receptor; Table 4′, starred values, E^−5): 68* %; % Inhibition Progesterone Receptor *E^−7 (progesterone receptor; Table 4′, starred values, E^−7): 8* % |
| CCC(=O)O[C@]1(C(C)=O)CCC2C3C=C(C)C4=CC(=O)C[C@H](C)[C@]4(C)C3CC[C@@]21C (some centres unmarked) [CS-243] | – | – | – | – | % Inhibition Androgen Receptor (androgen receptor; E^−6): 33%; % Inhibition Androgen Receptor (androgen receptor; E^−8): 0%; % Inhibition Progesterone Receptor (progesterone receptor; E^−6): 27%; % Inhibition Progesterone Receptor (progesterone receptor; E^−8): 0% |
| CC1CCC2(CCC3C4CCc5cc(O)c([N+](=O)[O-])cc5C4CCC32C)OC1=O [EM-1126, 2-Nitro-1,3,5(10)-estratrien-3-ol-17(R)-spiro-2′-(5′-methyl-6′-oxo)tetrahydropyran] | – | – | 14 | 5 | % Inhibition Androgen Receptor E^−6 (androgen receptor; Table 4′, E^−6): 10%; % Inhibition Androgen Receptor E^−8 (androgen receptor; Table 4′, E^−8): 2% |
